Columns and labels:
[1] = tested on: V79 hamster fibroblast cells
Text: We have also determined the cytotoxicity of porphyrins 4, 16, 18, and 31 in V79 hamster fibroblast cells using a clonogenic assay.

[2] = tested on: Human glioblastoma U373 MG cells; assay: Dark cytotoxicity assay, U-373 MG cells; type: cell-based; details: 24 hour exposure, read-out: IC50 (dark toxicity)
Protocol: (§1) Human glioblastoma U373 MG, hamster V79 fibroblast, and mouse melanoma B16 cells were obtained from the American Type Culture Collection. Rat gliosarcoma cells were kindly provided by the University of California at San Francisco Brain Tumor Research Group. All cells were maintained in log phase monolayer cultures with RPMI 1640 supplemented with 10% fetal bovine serum and 2 mM glutamine.
(§2) Cells were seeded in 96-well culture plates, and were allowed to settle and attach for 24-48 hours. Triplicate wells were then exposed to twofold serial dilutions of test compounds at concentrations up to 250 μM. Compounds 4, 6, 10, and 12 in crystalline form were carefully weighed and dissolved in 100% DMSO to prepare stock solutions. Subsequent dilutions were performed directly in the culture medium just before the medium was administered to cells. After short-term (2 hour) or long-term (24 hour) exposure, cells were washed, and the wells were refilled with fresh culture medium. For dark toxicity trials, cells were allowed to proliferate for an additional 48-72 hours. For phototoxicity trials, washed cells were irradiated for 10 minutes with broad spectrum (600-700 nm) red light, and were then returned to an incubator for 48-72 hours.

Rat gliosarcoma 9L cells = assay: Dark cytotoxicity assay, 9L cells; type: cell-based; details: 24 hour exposure, read-out: IC50 (dark toxicity)
Protocol: as §1, §2

[3] = tested on: 9L, U-373MG and B16 cells; assay: Concentration-dependent cellular uptake; type: cell-based; details: cells exposed to 1, 5, and 10 μM for 24 hours
Protocol: The concentration-dependent uptake of compounds 4, 6, 10, and 12 was investigated in cells exposed to 1, 5, and 10 μM concentrations of the porphyrins for 24 hours. The concentration of intracellular-bound porphyrin was determined by chemical extraction of washed cell monolayers, followed by spectrophotometric or ICP-MS determinations, or both. The uptake values for 9L and U-373MG cells were very similar, and exceeded that for B16 cells. The porphyrin accumulation was invariably observed to increase with increasing concentration of the compound.

[4] = mouse, in vivo
[5] = tested on: 9L, U-373 MG and B16 cells; assay: Phototoxicity assay (red light irradiation); type: cell-based; details: irradiation with broad spectrum (600-700 nm) red light 10 minutes
Protocol: as §1, §2

[6] = tested on: human leukemia K562 cells; assay: Alkaline Comet assay; type: cell-based; details: yellow light 100 W bulb 5 minutes, versus dark and light-only controls
Protocol: The second test, the alkaline Comet assay, is a sensitive technique for determining the presence of single- and double-strand breaks and other DNA lesions such as baseless sites. Human K562 cells were incubated with porphyrins 16, 31, and 33, and were then either exposed to a source of yellow light from a 100 W bulb for 5 minutes at room temperature or kept in the dark. The cells were then immobilized on agarose slides, lysed, exposed to alkaline buffer, electrophoresed, and stained for visualization.

HIV-1 strain 89.6 = assay: In vitro virucidal activity against HIV-1 strain 89.6 (assay of A. Vzorov et al. 2002); type: cell-based; details: 0% = no infective particles remained
Protocol: (§3) Porphyrins 16, 31, and 33 have been assayed for in vitro virucidal activity against HIV-1 using the assay of A. Vzorov et al. (2002) (full citation below). The assay was conducted on two different strains of HIV-1, strain IIIB, and strain 89.6. The figures in the table denote the percentage of viral particles that were still infective following treatment.

HIV-1 = details: preliminary experiments
HIV-1 strain IIIB = assay: In vitro virucidal activity against HIV-1 strain IIIB (assay of A. Vzorov et al. 2002); type: cell-based; details: 0% = no infective particles remained
Protocol: as §3

[7] = tested on: supercoiled DNA substrate φX174; assay: Supercoiled DNA nicking assay (DNA photodamage); type: biochemical; details: for Form II (nicked) DNA produced in the dark: samples kept in the dark; for phosphodiester breaks in supercoiled DNA, light-exposed versus dark: yellow light 100 W bulb, 30 cm, 30 minutes
Text: In the first test to determine the ability of a porphyrin to induce DNA photodamage, we used a supercoiled DNA substrate that migrates rapidly as a single band in agarose gels, but migrates much more slowly if the DNA sustains as little as a single phosphodiester break or nick. Using this technique, we examined the ability of porphyrins 16, 31 and 33 to nick the supercoiled DNA substrate φX174. The porphyrin—DNA mixtures were shielded from light until just prior to the nicking assay, at which time half of each sample remained in the dark, while the other half was exposed to yellow light from a 100 W bulb at a distance of 30 cm for 30 minutes, at room temperature. The samples were then incubated for 30 min at room temperature in the dark, and the products of the reaction were then electrophoresed on a 1% agarose gel and stained.

| Substance | CS50 [1] [µM] | IC50 [2] [µM] | IC50 (Rat gliosarcoma 9L cells) [µM] | uptake relative to the corresponding Zn(II) complexes [3] | maximum tolerated dose [4] | IC50 ([5]; 2-hour exposure) [µM] | IC50 ([5]; 24-hour exposure) [µM] | DNA damage (Comet tail) after light exposure [6] | percentage of viral particles that were still infective following treatment (HIV-1 strain 89.6) [%] | activity against HIV-1 in vitro (HIV-1) | percentage of viral particles that were still infective following treatment (HIV-1 strain IIIB) [%] | Form II (nicked) DNA produced in the dark [7] | phosphodiester breaks in supercoiled DNA, light-exposed versus dark [7] |
| --- | --- | --- | --- | --- | --- | --- | --- | --- | --- | --- | --- | --- | --- |
| Zn(II)-meso-tetra[4-(nido-carboranyl)phenyl]porphyrin tetrapotassium salt [Compound 18] | > 300 |  |  |  |  |  |  |  |  |  |  |  |  |
| meso-tetra[4-(1-methyl-nido-arboranyl)methylphenyl]porphyrin tetrapotassium salt [Compound 4] | > 300 | ~150 | ~150 | approximately four times greater | exceeded 300 mg per kg of body weight | ~50 | ~1.5 |  |  |  |  |  |  |
| meso-tetra[4-(nido-carboranyl)phenyl]porphyrin tetrapotassium salt [Compound 16] | > 300 |  |  |  | exceeded 300 mg per kg of body weight |  |  | light-activated DNA damage | 0 | high levels of activity | 4 | little Form II DNA | significantly more effective |
| meso-tetra[3-(1-methyl-nido-carboranyl)methylphenyl]porphyrin tetrapotassium salt [Compound 10] |  | ~150 | ~150 | approximately four times greater |  |  |  |  |  |  |  |  |  |
| Zn(II)-meso-tetra[4-(1-methyl-nido-carboranyl)methylphenyl]porphyrin tetrapotassium salt [Compound 6] |  |  |  |  | exceeded 300 mg per kg of body weight |  |  |  |  |  |  |  |  |
| Zn(II)-5,15-bis[bis-3,5-(1-methyl-nido-carboranyl)methylphenyl]porphyrin tetrapotassium salt [Compound 33] |  |  |  |  | exceeded 300 mg per kg of body weight |  |  | light-activated DNA damage | 4 | high levels of activity | 0 | little Form II DNA | significantly more effective |
| 5,15-bis[bis-3,5-(1-methyl-nido-carboranyl)methylphenyl]porphyrin tetrapotassium salt [Compound 31] | > 300 |  |  |  | exceeded 300 mg per kg of body weight |  |  | light-activated DNA damage | 2 | high levels of activity | 9 | little Form II DNA | significantly more effective |
